Patent US20250304620A1, “ANTIMICROBIAL PEPTIDE AND APPLICATION THEREOF” (priority 2023, published 2025)
Converted amounts (≈) assume the structure as drawn. Marks after values point to notes of the source that are not given here. Non-standard residues stand in square brackets, D forms with d. Residues, ends and D or L forms follow the SMILES beside them. dPhe(4-CF3) = N[C@H](Cc1ccc(C(F)(F)F)cc1)C(=O)O; d2Nal = N[C@H](Cc1ccc2ccccc2c1)C(=O)O

Legend:
[1] = tested on: Methicillin-resistant Staphylococcus aureus (MRSA); type: cell-based; conditions: Methicillin-resistant
Text: (§1) According to the Standards of Clinical and Laboratory Standards Institute (CLSI) of the USA for antimicrobial drug susceptibility test operation standards, the micronutrient serial twofold dilution method was used further determine MICs of the antimicrobial peptides LV-1 to LV-30 against 5 clinically common drug-resistant bacterial strains. The experiment was repeated 5 times in parallel. […] The tested drug-resistant strains included Methicillin-resistant Staphylococcus aureus (MRSA), carbapenem-resistant Escherichia coli (CREC), vancomycin-resistant Enterococcus (VRE), carbapenem-resistant Pseudomonas aeruginosa (CRPA), and carbapenem-resistant Klebsiella pneumoniae (CRKP).

[2] = tested on: carbapenem-resistant Escherichia coli (CREC); type: cell-based; conditions: carbapenem-resistant (CREC)
Text: as §1

[3] = tested on: carbapenem-resistant Klebsiella pneumoniae (CRKP); type: cell-based; conditions: carbapenem-resistant (CRKP)
Text: as §1

[4] = tested on: carbapenem-resistant Pseudomonas aeruginosa (CRPA); type: cell-based; conditions: carbapenem-resistant (CRPA)
Text: as §1

[5] = tested on: vancomycin-resistant Enterococcus (VRE); type: cell-based
Text: as §1

rabbit red blood cells = type: cell-based; conditions: red cells of rabbit, 1 h
[6] = tested on: Pseudomonas aeruginosa ATCC 27853; assay: Injectable formulations on mice infected with peritonitis; type: in vivo, ICR mice; conditions: twice a day for 3 days; for Number of mice that died on each day after infection: day 1 / Number of mice that died on each day after infection: day 2 / Number of mice that died on each day after infection: day 3 / Number of mice that died on each day after infection: day 4 / Number of mice that died on each day after infection: day 5 / Average survival times (Days): n = 10; for Average survival times (Days): observed for 14 d
Summary of the method: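 Survival readout: deaths and survival time tracked for 14 d. Treatment was tail-vein injection by body weight, twice a day for 3 consecutive days, starting right after intraperitoneal challenge with 0.2 mL of 1×10^9 CFU/mL P. aeruginosa ATCC 27853 in male and female ICR mice.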

| Compound | MIC MRSA [1] [µg/mL] | MIC CREC [2] [µg/mL] | MIC CRKP [3] [µg/mL] | MIC CRPA [4] [µg/mL] | MIC VRE [5] [µg/mL] | MHC (minimum hemolytic concentration, lowest concentration causing 10% hemolysis) (rabbit red blood cells) [µg/mL] | Number of mice that died on each day after infection: day 1 ([6]; 1 mg/kg via tail vein) [Mouse] | Number of mice that died on each day after infection: day 2 ([6]; 1 mg/kg via tail vein) [Mouse] | Number of mice that died on each day after infection: day 3 ([6]; 1 mg/kg via tail vein) [Mouse] | Number of mice that died on each day after infection: day 4 ([6]; 1 mg/kg via tail vein) [Mouse] | Number of mice that died on each day after infection: day 5 ([6]; 1 mg/kg via tail vein) [Mouse] | Average survival times (Days) ([6]; 1 mg/kg via tail vein) | further results |
| --- | --- | --- | --- | --- | --- | --- | --- | --- | --- | --- | --- | --- | --- |
| CC(=O)N[C@H](CCCNC(=N)N)C(=O)N[C@H](CCCCN)C(=O)N[C@H](CC(C)C)C(=O)N[C@H](CC(C)C)C(=O)N[C@H](Cc1ccccc1)C(=O)N[C@H](CCCNC(=N)N)C(=O)N[C@H](CC(C)C)C(=O)N[C@H](CCCCN)C(=O)N[C@H](Cc1ccccc1)C(=O)N[C@H](CCCNC(=N)N)C(=O)N[C@H](CCCCN)C(N)=O [LV-2] (Ac-[dR][dK][dL][dL][dF][dR][dL][dK][dF][dR][dK]-NH2) | 2 (≈ 1.29 µM) | 4 (≈ 2.59 µM) | 2 (≈ 1.29 µM) | 8 (≈ 5.17 µM) | 2 (≈ 1.29 µM) | >1000 | 0 | 0 | 1 | 0 | 1 | 12.0**** Days | Number of mice that died on each day after infection: day 1 ([6]; 0.2 mg/kg via tail vein): 3 Mouse; Number of mice that died on each day after infection: day 2 ([6]; 0.2 mg/kg via tail vein): 1 Mouse; Number of mice that died on each day after infection: day 3 ([6]; 0.2 mg/kg via tail vein): 1 Mouse; Number of mice that died on each day after infection: day 4 ([6]; 0.2 mg/kg via tail vein): 0 Mouse; Number of mice that died on each day after infection: day 5 ([6]; 0.2 mg/kg via tail vein): 0 Mouse; Average survival times (Days) ([6]; 0.2 mg/kg via tail vein): 7.8** Days; Number of mice that died on each day after infection: day 1 ([6]; 5 mg/kg via tail vein): 1 Mouse; Number of mice that died on each day after infection: day 2 ([6]; 5 mg/kg via tail vein): 0 Mouse; Number of mice that died on each day after infection: day 3 ([6]; 5 mg/kg via tail vein): 1 Mouse; Number of mice that died on each day after infection: day 4 ([6]; 5 mg/kg via tail vein): 0 Mouse; Number of mice that died on each day after infection: day 5 ([6]; 5 mg/kg via tail vein): 0 Mouse; Average survival times (Days) ([6]; 5 mg/kg via tail vein): 11.6**** Days; survival time of mice infected with Pseudomonas aeruginosa ([6]; tail vein, observed 14 d): superior to those of the Levofloxacin group |
| CC(=O)N[C@H](CCCNC(=N)N)C(=O)N[C@H](CCCCN)C(=O)N[C@H](CC(C)C)C(=O)N[C@H](CC(C)C)C(=O)N[C@H](Cc1ccc(C(F)(F)F)cc1)C(=O)N[C@H](CCCCN)C(=O)N[C@H](CC(C)C)C(=O)N[C@H](CCCCN)C(=O)N[C@H](Cc1ccc(C(F)(F)F)cc1)C(=O)N[C@H](CCCCN)C(=O)N[C@H](CCCNC(=N)N)C(N)=O [LV-9] (Ac-[dR][dK][dL][dL][dPhe(4-CF3)][dK][dL][dK][dPhe(4-CF3)][dK][dR]-NH2) | 2 (≈ 1.21 µM) | 2 (≈ 1.21 µM) | 8 (≈ 4.84 µM) | 4 (≈ 2.42 µM) | 4 (≈ 2.42 µM) | >1000 | 1 | 2 | 0 | 1 | 0 | 9.3*** Days | – |
| CC(=O)N[C@H](CCCNC(=N)N)C(=O)N[C@H](CCCCN)C(=O)N[C@H](CC(C)C)C(=O)N[C@H](CC(C)C)C(=O)N[C@H](Cc1ccccc1)C(=O)N[C@H](CCCNC(=N)N)C(=O)N[C@H](CC(C)C)C(=O)N[C@H](CCCCN)C(=O)N[C@H](Cc1ccc2ccccc2c1)C(=O)N[C@H](CCCNC(=N)N)C(=O)N[C@H](CCCCN)C(N)=O [LV-3] (Ac-[dR][dK][dL][dL][dF][dR][dL][dK][d2Nal][dR][dK]-NH2) | 2 (≈ 1.25 µM) | 4 (≈ 2.51 µM) | 4 (≈ 2.51 µM) | 8 (≈ 5.01 µM) | 8 (≈ 5.01 µM) | >1000 | 1 | 1 | 0 | 2 | 1 | 8.6** Days | – |
